Laboratory results published in US20210260102A1, “TUNABLE IMMUNE RESPONSIVE BIODEGRADABLE ARGININE-BASED POLY(ESTER AMIDE)S AND METHODS OF MAKING AND USING SAME” (Cornell University, priority 2018, published 2021).

Key:
[1] = tested on: RAW 264.7 cells; assay: Arginase activity assay of treated macrophages; details: 2 mg/mL, 24 h
Procedure: 4×10^5 RAW 264.7 cells in each well were incubated in 400 μL DMEM media contains 10% FBS in 24 well plates for 24 h. […] For CAM or AAM group, treatments contained either 100 U/mL recombinant mouse interferon-γ (IFN-γ, 1.25×10^7 U/mg, Shenandoah Biotechnology, PA) plus 100 ng/mL lipopolysaccharide (LPS, Sigma-Aldrich) or 20 ng/mL recombinant mouse interleukin-4 (IL-4, Shenandoah Biotechnology, PA) respectively to induce different activation phenotype. Resting Macrophages, CAM and AAM incubated in DMEM contains 5% FBS without treatments were used as controls.
The arginase activity assay is tested colorimetrically. The cells were washed with PBS and lysed by 200 μL 0.2% Triton X-100 in 20 mM Tris-HCl, pH 7.5 containing 20 g pepstatin A, 20 μg aprotinin and 20 μg leupeptin as protease inhibitors. After the cell was lysed, 200 μL 10 mM MnCl2 was added and the enzyme was activated for 10 minutes at 55° C. 100 μL aliquot of the activated lysate was mixed with 100 μL 0.5 M Arg and incubated at 37° C. for 1 h. […] After being cooled to room temperature, the absorbance of 200 μL mixture solution at 540 nm was tested in 96 well plates. […] The NO production and the arginase activity in three replicate wells of each condition were tested and the mean value was calculated with standard deviations.

[2] = tested on: RAW 264.7 cells; assay: NO production of macrophages (Griess reagent); assay type: cell-based, murine; details: CAM (LPS+IFN-γ), 24 h
[3] = neutral pH; cited from earlier work

Compound	arginase activity of CAM [1]	NO production of CAM ([2]; 1 mg/mL)	NO production of CAM ([2]; 2 mg/mL)	water solubility [3]
N=C(N)NCCC[C@H](N)C(=O)O [Arg, L-arginine]	17.9±0.7 U	42.5 ± 2.6 µM	50.7 ± 1.1 µM	–
N-nitro-L-arginine [NOArg]	–	–	–	~870 µg/mL
